Test results: patent US20240271329A1, “CYCLIC COMPOUND LIBRARY AND CONSTRUCTION METHOD THEREFOR” (Yafei Shanghai Biology Medicine Science & Technology Co. …, priority 2021, published 2024)
Like-named read-outs stand apart in the source and are kept apart here. Square brackets hold non-standard residues; d marks the D form. Peptide text beside a SMILES is read from it. * marks the point of attachment. ξ: configuration not given here. Phe(3-CF3) = N[C@@H](Cc1cccc(C(F)(F)F)c1)C(=O)O; NMeF = CN[C@@H](Cc1ccccc1)C(=O)O; 3Pal = N[C@@H](Cc1cccnc1)C(=O)O; Cha = N[C@@H](CC1CCCCC1)C(=O)O; Cit = NC(=O)NCCC[C@H](N)C(=O)O; NMeL = CN[C@@H](CC(C)C)C(=O)O; ξP = O=C(O)C1CCCN1; OtBu = CC(C)(C)O*; Sar = CNCC(=O)O

Assay: MDCK monolayer membrane permeability (A→B transport)
Format: in vitro ADME, canine
Conditions: dog
Procedure: In order to determine the cyclic peptide compounds 9-12 obtained in the above examples, an MDCK model was established to determine their membrane permeability. The MDCK cell line was sourced from Madin Darby canine epithelial cell lines, and the monolayer MDCK cell was the best cytological model to study the in vivo processes such as absorption and reabsorption of drugs in renal tubules. The MDCK cells in a disperse culture flask were digested, and seeded to Millicell CPI at 5×10^4/cm^2; 400 μL of MEM culture solution containing 10% FBS was added to a side A (a luminal side, Apical), and 800 μL of the MEM culture solution was added to a side B (a basolateral side); and the mixture was incubated in an incubator containing 5% CO2 at 37° C. The solution was changed every day. It should be noted that a pipette should not to touch a cell membrane, thereby avoiding damaging the cell layer; and the transmembrane resistance (i.e., trans-epithelial electrical resistance, TEER) was regularly measured by using Millicell2ERS to test the integrity of the cell monolayer.
The A→B transport from the apical end (A) to the basolateral end (B) of the monolayer membrane of the MDCK cells was observed. For the determination of A→B, 450 μL of a drug or a positive control HEPES solution was added to the apical end of the membrane as a feeding cell, and 1300 μL of a blank HEPES solution was added to the basolateral end as a receiving cell. A Transwell plate was placed on a constant-temperature shaker at 37° C. and shaken; after 90 min, a sample solution was extracted respectively from the feeding cell and the receiving cell; acetonitrile was added to precipitate proteins, and then vortexing, centrifuging and transferring were carried out; and the permeance was measured by LC/MS. Based on this permeance, a membrane permeance coefficient (Papp, i.e., apparent permeability, which was a specific evaluation parameter) was calculated. The Papp greater than 1×10^−6 cm/s indicated the absorption of more than 60% of a drug, and the Papp greater than 10×10^−6 cm/s indicated the absorption of more than 80% of drug molecules.

[1] = MDCK A→B, not, read-out: Papp values
[2] = apical to basolateral, MDCK monolayer, 37° C., 90 min, LC/MS, read-out: MDCK Papp(A − B)

| Papp A→B at 90 min [1] | Papp A→B at 90 min [2] | SMILES |
| --- | --- | --- |
| > 10 ×10⁻⁶ cm/s | 11.3 ×10⁻⁶ cm/s | CC(C)C[C@@H]1NC(=O)CNC(=O)[C@H](CC(N)=O)NC(=O)C2CCCN2C(=O)[C@H]2CCCN2C(=O)[C@H](CCC(=O)OC(C)(C)C)NC(=O)CN(C)C(=O)[C@H](Cc2cccc(C(F)(F)F)c2)NC(=O)[C@H](CC(C)C)N(C)C(=O)[C@H](Cc2ccccc2)N(C)C1=O (stereo partly drawn) [Compound 9] (cyclo(E(OtBu)[dP][ξP]NGL[NMeF][NMeL][Phe(3-CF3)][Sar])) |
|  | 4.8 ×10⁻⁶ cm/s | CC(C)C[C@@H]1NC(=O)CNC(=O)[C@H](CC(N)=O)NC(=O)C2CCCN2C(=O)[C@H]2CCCN2C(=O)[C@H](CCC(=O)OC(C)(C)C)NC(=O)CN(C)C(=O)[C@H](Cc2cccnc2)NC(=O)[C@H](CC(C)C)N(C)C(=O)[C@H](Cc2ccccc2)N(C)C1=O (stereo partly drawn) [Compound 10] (cyclo([3Pal][Sar]E(OtBu)[dP][ξP]NGL[NMeF][NMeL])) |
|  | 0.9 ×10⁻⁶ cm/s | CC(C)C[C@@H]1NC(=O)CNC(=O)[C@H](CC(N)=O)NC(=O)C2CCCN2C(=O)[C@H]2CCCN2C(=O)[C@H](CCC(=O)OC(C)(C)C)NC(=O)CN(C)C(=O)[C@H](CCCNC(N)=O)NC(=O)[C@H](CC(C)C)N(C)C(=O)[C@H](Cc2ccccc2)N(C)C1=O (stereo partly drawn) [Compound 12] (cyclo([Cit][Sar]E(OtBu)[dP][ξP]NGL[NMeF][NMeL])) |
| > 10 ×10⁻⁶ cm/s | 16.2 ×10⁻⁶ cm/s | CC(C)C[C@@H]1NC(=O)CNC(=O)[C@H](CC(N)=O)NC(=O)C2CCCN2C(=O)[C@H]2CCCN2C(=O)[C@H](CCC(=O)OC(C)(C)C)NC(=O)CN(C)C(=O)[C@H](CC2CCCCC2)NC(=O)[C@H](CC(C)C)N(C)C(=O)[C@H](Cc2ccccc2)N(C)C1=O (stereo partly drawn) [Compound 11] (cyclo([Cha][Sar]E(OtBu)[dP][ξP]NGL[NMeF][NMeL])) |
